Test system: Primary human dermal papilla cells
Test: Synergy study: survival of metabolically stressed dermal papilla cells (ATP, Cell Titer Glo)
Format: cell-based
Conditions: cells metabolically stressed 48 hours in reduced media, control 100% water
Experimental: The dermal papilla, in normal human hair, is the control center for hair diameter. Increasing survival of dermal papilla cells in situ leads to increased hair diameter. Accordingly, an increase in survival of dermal papilla cells correlates with an increase in hair diameter.
Primary human dermal papilla cells were metabolically stressed for 48 hours in reduced standard tissue culture media. During this period of stress the cells were treated with the mixtures or individual ingredients below. After 48 hr the metabolic activity of the cells was measured by the amount of ATP using the Cell Titer Glo™ kit (Promega).

## CC(C)(CO)[C@@H](O)C(=O)NCCCO [Panthenol]
0.15%
  Survival rate: % Change from Control: +6%

## NC(=O)c1cccnc1 [Niacinamide]
0.006%
  Survival rate: % Change from Control: −8%

## Cn1c(=O)c2c(ncn2C)n(C)c1=O [Caffeine]
0.05%
  Survival rate: % Change from Control: +41%

— patent publication US20090220445A1, “HAIR CARE COMPOSITIONS AND METHODS FOR INCREASING HAIR DIAMETER AND DELIVERING ADDITIONAL BENEFITS” (priority 2008, published 2009)
